# Key:
# cGVHD symptoms = test: Example 1: symptom activity by cGVHD Activity Assessment participant self-report; type: in vivo, human
# Text: Number of Participants With Maximal Improvement From Baseline in Symptom Activity by cGVHD Activity Assessment Participant Self-Report. cGVHD symptom severity was self-reported by participants. Participants were asked to rate their disease symptom severity over the last week on the following questions: skin itching at its worst, moth dryness at its worst, mouth pain at its worst, mouth sensitivity at its worst, main compliant on eyes, symptom severity on eyes. The severity rating was done on a 0 to 10-point numeric rating scare, where score 0 indicated ‘not at all severe cGVHD symptoms’ and score 10 indicated ‘most severe cGVHD symptoms possible’. EOT visit was performed within 3 days after the participant's last dose of study drug. Baseline value was defined as valid and last non-missing value obtained within 28 days prior to participant receiving first study medication. […] Analysis was performed on mITT population.
# cGVHD symptom burden = test: Example 2: 7-day LSS summary score; type: in vivo, human; details: for Clinically significant improvement from baseline (LSS), Overall: decrease ≥ 7 points in LSS score
# Experimental: (§1) All responses were assessed by the study site investigators.
# cGVHD = test: Example 2: corticosteroid and other immunosuppressant reduction; type: in vivo, human
# Experimental: as §1
# [1] = pharmacokinetics in healthy subjects (bioavailability, food effect, distribution, excretion); type: in vivo, human
# CYP3A4 = CYP3A4 (Homo sapiens, UniProt P08684); test: metabolism in vitro; type: in vitro ADME
# CYP2D6 = CYP2D6 (Homo sapiens, UniProt P10635); test: metabolism in vitro; type: in vitro ADME
# [2] = clinical drug interaction studies, effects of other drugs on belumosudil; type: in vivo, human; details: healthy subjects
# CYP2C19 = CYP2C19 (Homo sapiens, UniProt P33261); test: enzyme inhibition in vitro; type: in vitro ADME
# UGT1A9 = target: T1, UGT1A9 (Homo sapiens, UniProt O60656); test: enzyme inhibition in vitro; type: in vitro ADME
# T1 sequence (O60656 26-530): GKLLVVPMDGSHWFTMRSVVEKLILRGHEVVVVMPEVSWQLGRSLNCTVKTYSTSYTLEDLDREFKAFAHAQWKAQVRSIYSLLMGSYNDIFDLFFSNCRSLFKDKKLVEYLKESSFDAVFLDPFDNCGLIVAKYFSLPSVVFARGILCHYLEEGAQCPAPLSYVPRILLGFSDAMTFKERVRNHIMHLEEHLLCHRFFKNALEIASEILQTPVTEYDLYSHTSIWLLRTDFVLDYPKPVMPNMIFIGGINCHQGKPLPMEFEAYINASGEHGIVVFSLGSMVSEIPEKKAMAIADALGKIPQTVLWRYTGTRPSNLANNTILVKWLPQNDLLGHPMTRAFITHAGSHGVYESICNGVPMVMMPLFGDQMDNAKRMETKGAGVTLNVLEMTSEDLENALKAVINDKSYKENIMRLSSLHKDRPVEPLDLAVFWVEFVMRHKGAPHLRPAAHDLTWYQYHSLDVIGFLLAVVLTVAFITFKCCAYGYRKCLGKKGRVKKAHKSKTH
# [3] = pharmacokinetics in specific populations (population pharmacokinetics); parameters: species or system human; details: in vivo
# CYP2C19, sequence (P33261 whole entry): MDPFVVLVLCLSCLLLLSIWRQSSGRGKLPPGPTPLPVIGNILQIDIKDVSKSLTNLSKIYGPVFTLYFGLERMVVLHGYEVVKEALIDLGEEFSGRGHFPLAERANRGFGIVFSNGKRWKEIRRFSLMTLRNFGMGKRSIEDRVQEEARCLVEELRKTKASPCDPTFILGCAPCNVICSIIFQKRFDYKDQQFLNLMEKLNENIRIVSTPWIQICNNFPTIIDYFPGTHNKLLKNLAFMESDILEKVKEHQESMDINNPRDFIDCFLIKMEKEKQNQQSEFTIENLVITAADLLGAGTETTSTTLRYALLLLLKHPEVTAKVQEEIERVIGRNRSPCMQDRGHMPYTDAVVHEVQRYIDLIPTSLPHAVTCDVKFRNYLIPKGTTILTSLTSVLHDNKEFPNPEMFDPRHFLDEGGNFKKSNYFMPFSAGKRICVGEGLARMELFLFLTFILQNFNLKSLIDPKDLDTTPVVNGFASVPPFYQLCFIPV
# CYP2D6, sequence (P10635 whole entry): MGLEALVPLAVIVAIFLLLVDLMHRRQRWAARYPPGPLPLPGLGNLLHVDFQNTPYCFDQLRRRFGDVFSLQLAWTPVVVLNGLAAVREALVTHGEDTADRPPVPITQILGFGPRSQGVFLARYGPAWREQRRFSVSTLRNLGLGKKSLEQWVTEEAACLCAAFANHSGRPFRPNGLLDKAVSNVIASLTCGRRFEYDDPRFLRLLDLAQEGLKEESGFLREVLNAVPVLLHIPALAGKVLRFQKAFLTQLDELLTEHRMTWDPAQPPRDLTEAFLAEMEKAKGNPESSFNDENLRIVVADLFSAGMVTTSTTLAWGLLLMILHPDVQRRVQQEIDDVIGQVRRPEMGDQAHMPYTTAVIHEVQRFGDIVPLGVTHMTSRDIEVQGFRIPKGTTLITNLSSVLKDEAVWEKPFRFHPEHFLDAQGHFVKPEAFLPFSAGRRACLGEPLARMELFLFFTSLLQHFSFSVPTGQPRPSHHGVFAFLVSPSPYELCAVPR
# CYP3A4, sequence (P08684 whole entry): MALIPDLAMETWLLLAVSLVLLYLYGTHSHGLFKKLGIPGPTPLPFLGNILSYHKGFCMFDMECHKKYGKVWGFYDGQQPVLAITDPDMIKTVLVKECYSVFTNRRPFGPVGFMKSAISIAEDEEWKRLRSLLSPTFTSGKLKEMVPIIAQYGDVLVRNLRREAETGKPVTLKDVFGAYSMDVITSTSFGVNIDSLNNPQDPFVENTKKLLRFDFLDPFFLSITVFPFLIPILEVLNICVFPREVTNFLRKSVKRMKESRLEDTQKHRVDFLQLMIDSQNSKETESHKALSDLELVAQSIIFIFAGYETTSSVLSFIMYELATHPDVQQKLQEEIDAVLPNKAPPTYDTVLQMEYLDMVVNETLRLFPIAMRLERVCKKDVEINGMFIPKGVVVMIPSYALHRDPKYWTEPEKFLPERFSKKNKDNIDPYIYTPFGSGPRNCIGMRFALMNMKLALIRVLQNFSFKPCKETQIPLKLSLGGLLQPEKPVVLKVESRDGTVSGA
compound,measurement,setting,value
"CC(C)NC(=O)COc1cccc(-c2nc(Nc3ccc4[nH]ncc4c3)c3ccccc3n2)c1 [Belumosudil, 2-{3-[4-(1H-indazol-5-ylamino)-2-quinazolinyl]phenoxy}-N-(propan-2-yl) acetamide]","self-reported symptom activity maximal improvement 0, participants (%)",cGVHD symptoms; Cohort 1 200 mg QD,1 (6%) participants
same,"self-reported symptom activity maximal improvement 1, participants (%)",cGVHD symptoms; Cohort 1 200 mg QD,0 (0%) participants
same,"self-reported symptom activity maximal improvement 2, participants (%)",cGVHD symptoms; Cohort 1 200 mg QD,0 (0%) participants
same,"self-reported symptom activity maximal improvement 4, participants (%)",cGVHD symptoms; Cohort 1 200 mg QD,1 (6%) participants
same,"self-reported symptom activity maximal improvement from baseline −8, participants (%)",cGVHD symptoms; Cohort 1 200 mg QD,0 (0%) participants
same,"self-reported symptom activity maximal improvement −1, participants (%)",cGVHD symptoms; Cohort 1 200 mg QD,2 (12%) participants
same,"self-reported symptom activity maximal improvement −2, participants (%)",cGVHD symptoms; Cohort 1 200 mg QD,2 (12%) participants
same,"self-reported symptom activity maximal improvement −3, participants (%)",cGVHD symptoms; Cohort 1 200 mg QD,2 (12%) participants
same,"self-reported symptom activity maximal improvement −4, participants (%)",cGVHD symptoms; Cohort 1 200 mg QD,2 (12%) participants
same,"self-reported symptom activity maximal improvement −5, participants (%)",cGVHD symptoms; Cohort 1 200 mg QD,2 (12%) participants
same,"self-reported symptom activity maximal improvement −6, participants (%)",cGVHD symptoms; Cohort 1 200 mg QD,0 (0%) participants
same,"self-reported symptom activity maximal improvement −7, participants (%)",cGVHD symptoms; Cohort 1 200 mg QD,3 (18%) participants
same,"self-reported symptom activity maximal improvement 0, participants (%)",cGVHD symptoms; Cohort 2 200 mg BID,1 (6%) participants
same,"self-reported symptom activity maximal improvement 1, participants (%)",cGVHD symptoms; Cohort 2 200 mg BID,0 (0%) participants
same,"self-reported symptom activity maximal improvement 2, participants (%)",cGVHD symptoms; Cohort 2 200 mg BID,1 (6%) participants
same,"self-reported symptom activity maximal improvement 4, participants (%)",cGVHD symptoms; Cohort 2 200 mg BID,0 (0%) participants
same,"self-reported symptom activity maximal improvement from baseline −8, participants (%)",cGVHD symptoms; Cohort 2 200 mg BID,0 (0%) participants
same,"self-reported symptom activity maximal improvement −1, participants (%)",cGVHD symptoms; Cohort 2 200 mg BID,2 (13%) participants
same,"self-reported symptom activity maximal improvement −2, participants (%)",cGVHD symptoms; Cohort 2 200 mg BID,3 (19%) participants
same,"self-reported symptom activity maximal improvement −3, participants (%)",cGVHD symptoms; Cohort 2 200 mg BID,2 (13%) participants
same,"self-reported symptom activity maximal improvement −4, participants (%)",cGVHD symptoms; Cohort 2 200 mg BID,2 (13%) participants
same,"self-reported symptom activity maximal improvement −5, participants (%)",cGVHD symptoms; Cohort 2 200 mg BID,0 (0%) participants
same,"self-reported symptom activity maximal improvement −6, participants (%)",cGVHD symptoms; Cohort 2 200 mg BID,1 (6%) participants
same,"self-reported symptom activity maximal improvement −7, participants (%)",cGVHD symptoms; Cohort 2 200 mg BID,2 (13%) participants
same,"self-reported symptom activity maximal improvement 0, participants (%)",cGVHD symptoms; Cohort 3 400 mg QD,0 (0%) participants
same,"self-reported symptom activity maximal improvement 1, participants (%)",cGVHD symptoms; Cohort 3 400 mg QD,1 (5%) participants
same,"self-reported symptom activity maximal improvement 2, participants (%)",cGVHD symptoms; Cohort 3 400 mg QD,2 (10%) participants
same,"self-reported symptom activity maximal improvement 4, participants (%)",cGVHD symptoms; Cohort 3 400 mg QD,0 (0%) participants
same,"self-reported symptom activity maximal improvement from baseline −8, participants (%)",cGVHD symptoms; Cohort 3 400 mg QD,1 (5%) participants
same,"self-reported symptom activity maximal improvement −1, participants (%)",cGVHD symptoms; Cohort 3 400 mg QD,2 (10%) participants
same,"self-reported symptom activity maximal improvement −2, participants (%)",cGVHD symptoms; Cohort 3 400 mg QD,2 (10%) participants
same,"self-reported symptom activity maximal improvement −3, participants (%)",cGVHD symptoms; Cohort 3 400 mg QD,2 (10%) participants
same,"self-reported symptom activity maximal improvement −4, participants (%)",cGVHD symptoms; Cohort 3 400 mg QD,1 (5%) participants
same,"self-reported symptom activity maximal improvement −5, participants (%)",cGVHD symptoms; Cohort 3 400 mg QD,2 (10%) participants
same,"self-reported symptom activity maximal improvement −6, participants (%)",cGVHD symptoms; Cohort 3 400 mg QD,4 (19%) participants
same,"self-reported symptom activity maximal improvement −7, participants (%)",cGVHD symptoms; Cohort 3 400 mg QD,0 (0%) participants
same,"clinically meaningful LSS improvement, nonresponders",cGVHD symptom burden; 200 mg daily,29%
same,"clinically meaningful LSS improvement, responders",cGVHD symptom burden; 200 mg daily,69%
same,"clinically meaningful improvement (≥7-point) in 7-day LSS summary score, mITT",cGVHD symptom burden; 200 mg daily,59%
same,"clinically meaningful LSS improvement, nonresponders",cGVHD symptom burden; 200 mg twice daily,33%
same,"clinically meaningful LSS improvement, responders",cGVHD symptom burden; 200 mg twice daily,71%
same,"clinically meaningful improvement (≥7-point) in 7-day LSS summary score, mITT",cGVHD symptom burden; 200 mg twice daily,62%
same,"Clinically significant improvement from baseline (LSS), Overall",cGVHD symptom burden; 200 mg daily (n = 66),39 (59) n (%)
same,"Clinically significant improvement from baseline (LSS), Overall",cGVHD symptom burden; 200 mg twice daily (n = 66),41 (62) n (%)
same,"Clinically significant improvement from baseline (LSS), Overall",cGVHD symptom burden; Total (N = 132),80 (61) n (%)
same,"Mean change in CS dose from baseline, Nonresponder",cGVHD; 200 mg daily,−22%
same,"Mean change in CS dose from baseline, Overall",cGVHD; 200 mg daily,−43%
same,"Mean change in CS dose from baseline, Responder",cGVHD; 200 mg daily,−49%
same,CS discontinuation,cGVHD; 200 mg daily (n = 66),13 (20) n (%)
same,Median CS reduction from baseline to greatest reduction,cGVHD; 200 mg daily (n = 66),38%
same,Proportion with CS reduction,cGVHD; 200 mg daily (n = 66),42 (64) n (%)
same,"Mean change in CS dose from baseline, Nonresponder",cGVHD; 200 mg twice daily,−10%
same,"Mean change in CS dose from baseline, Overall",cGVHD; 200 mg twice daily,−48%
same,"Mean change in CS dose from baseline, Responder",cGVHD; 200 mg twice daily,−58%
same,CS discontinuation,cGVHD; 200 mg twice daily (n = 66),15 (23) n (%)
same,Median CS reduction from baseline to greatest reduction,cGVHD; 200 mg twice daily (n = 66),50%
same,Proportion with CS reduction,cGVHD; 200 mg twice daily (n = 66),44 (67) n (%)
same,subjects who discontinued calcineurin inhibitor (CNI) therapy,cGVHD; Example 2,22%
same,subjects who discontinued mycophenolate mofetil,cGVHD; Example 2,21%
same,subjects who discontinued sirolimus,cGVHD; Example 2,20%
same,subjects who reduced corticosteroid dose,cGVHD; Example 2,65%
same,mean corticosteroid dose reduction,"cGVHD; Example 2, mITT",45%
same,mean corticosteroid dose reduction,"cGVHD; Example 2, responders",54%
same,"Mean change in CS dose from baseline, Nonresponder",cGVHD; Total,−16%
same,"Mean change in CS dose from baseline, Overall",cGVHD; Total,−45%
same,"Mean change in CS dose from baseline, Responder",cGVHD; Total,−54%
same,Median CS reduction from baseline to greatest reduction,cGVHD; Total (N = 132),50%
same,Proportion with CS reduction,cGVHD; Total (N = 132),86 (65) n (%)
same,"food effect, Cmax increase",[1]; high-fat high-calorie meal vs fasted,2.2 times
same,radioactivity recovered in feces,[1]; single oral radiolabeled dose,85%
same,radioactivity recovered in urine,[1]; single oral radiolabeled dose,less than 5%
same,recovered in feces as unchanged,[1]; single oral radiolabeled dose,30%
same,metabolism by CYP3A4,CYP3A4,primarily metabolized
same,metabolism by CYP2D6,CYP2D6,to a lesser extent
same,decrease of belumosudil AUC with omeprazole,[2],47%
same,decrease of belumosudil AUC with rabeprazole,[2],80%
same,decrease of belumosudil AUC with rifampin,[2],72%
same,decrease of belumosudil Cmax with omeprazole,[2],68%
same,decrease of belumosudil Cmax with rabeprazole,[2],87%
same,decrease of belumosudil Cmax with rifampin,[2],59%
same,effect of itraconazole on belumosudil exposure,[2],no clinically meaningful effect
same,inhibition of CYP2C19,CYP2C19,inhibitor
same,inhibition of UGT1A9,UGT1A9,inhibitor
same,effect of age and body weight on pharmacokinetics (population pharmacokinetic data),[3],no clinically meaningful effect
same,"pharmacokinetic differences by age, sex, weight, mild to moderate renal impairment",[3],No clinically significant differences
